In publication PMC6944208 (Journal of the American Chemical Society, 2019) one finds Kd data, which are given here for one compound.

Broadly, the Kd is a measure of binding affinity in units of concentration. A higher Kd goes with weaker binding.

This assay deals with T1, MePqqB (Methylobacterium extorquens PqqB, Me PqqB) (Methylorubrum extorquens, UniProt Q49149).
T1 sequence (Q49149 1-299): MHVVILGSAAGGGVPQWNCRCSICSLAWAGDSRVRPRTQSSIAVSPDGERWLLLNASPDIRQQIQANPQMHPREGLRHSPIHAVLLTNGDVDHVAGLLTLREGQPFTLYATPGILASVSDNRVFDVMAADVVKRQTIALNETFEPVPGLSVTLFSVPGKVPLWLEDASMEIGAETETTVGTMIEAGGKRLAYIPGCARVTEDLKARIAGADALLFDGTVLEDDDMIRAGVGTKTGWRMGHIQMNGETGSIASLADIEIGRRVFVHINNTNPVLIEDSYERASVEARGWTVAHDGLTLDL
As to the kind of experiment: isothermal titration calorimetry. Format: binding. Background: In ITC the heat of successive injections is recorded.

`N[C@@H](CSc1cc(C[C@H](N)C(=O)O)cc(O)c1O)C(=O)O` [Cys-DOPA] came in with a dissociation constant (Kd) of about 200 nM.
